The text below walks through data of publication PMC3970981 (Nature chemical biology, 2013).

The subject of one test is E. coli MG1655. As to the kind of experiment: microbe, parasite or virus in culture. Particulars: Escherichia coli, MG1655, 16 h, read-out: MIC (μg/ml) ^a / −bio.
Test [1] addresses BioA (7,8-diaminopelargonic acid synthase) (Escherichia coli, UniProt P12995). Nature of the test: recombinant BioA activity, bioA auxotroph feeding assay at […]. The format is biochemical.

Converted amounts (≈) assume the structure as drawn.

Chain of BioA (7,8-diaminopelargonic acid synthase) (P12995 whole entry): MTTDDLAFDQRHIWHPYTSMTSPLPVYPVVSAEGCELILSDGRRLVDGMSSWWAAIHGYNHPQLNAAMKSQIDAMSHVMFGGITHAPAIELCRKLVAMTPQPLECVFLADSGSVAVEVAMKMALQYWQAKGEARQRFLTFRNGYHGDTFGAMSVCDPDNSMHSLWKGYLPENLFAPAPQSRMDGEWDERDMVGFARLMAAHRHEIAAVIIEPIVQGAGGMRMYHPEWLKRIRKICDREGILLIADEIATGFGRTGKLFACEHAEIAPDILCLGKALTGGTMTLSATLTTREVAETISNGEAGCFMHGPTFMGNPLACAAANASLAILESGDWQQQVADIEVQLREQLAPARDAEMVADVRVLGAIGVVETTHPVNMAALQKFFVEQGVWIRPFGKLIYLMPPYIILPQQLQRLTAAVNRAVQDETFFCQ

For the compound `CC(=O)NN` [compound 23], the MIC in the test with E. coli MG1655 came out at 128 µg/mL (≈ 1730 µM). Regarding `NNC(=O)CSc1cccc([N+](=O)[O-])c1` [compound 5], in test [1], the “% Inhibition ^b / 10 μM / 100” value was determined as 84. Consider `NNC(=O)CSc1ccc([N+](=O)[O-])cc1` [compound 6], for which the “% Inhibition ^b / 1 μM / 100” value in test [1] is given as 66. For the compound `CCCC(=O)NN` [compound 21], in the test on E. coli MG1655, the MIC was above 256 µg/mL.
